The Kinase Knowledgebase extract (Sharma et al. 2016)
Values joined by “and” are separate entries in the source; they are usually repeats but may differ in a detail not shown here. Identical values can stand only once.

Molecular target: EGFR (UniProt P00533)
Assay: not given
Settings: concentration not given here

EGFR, sequence (P00533 whole entry, looked up): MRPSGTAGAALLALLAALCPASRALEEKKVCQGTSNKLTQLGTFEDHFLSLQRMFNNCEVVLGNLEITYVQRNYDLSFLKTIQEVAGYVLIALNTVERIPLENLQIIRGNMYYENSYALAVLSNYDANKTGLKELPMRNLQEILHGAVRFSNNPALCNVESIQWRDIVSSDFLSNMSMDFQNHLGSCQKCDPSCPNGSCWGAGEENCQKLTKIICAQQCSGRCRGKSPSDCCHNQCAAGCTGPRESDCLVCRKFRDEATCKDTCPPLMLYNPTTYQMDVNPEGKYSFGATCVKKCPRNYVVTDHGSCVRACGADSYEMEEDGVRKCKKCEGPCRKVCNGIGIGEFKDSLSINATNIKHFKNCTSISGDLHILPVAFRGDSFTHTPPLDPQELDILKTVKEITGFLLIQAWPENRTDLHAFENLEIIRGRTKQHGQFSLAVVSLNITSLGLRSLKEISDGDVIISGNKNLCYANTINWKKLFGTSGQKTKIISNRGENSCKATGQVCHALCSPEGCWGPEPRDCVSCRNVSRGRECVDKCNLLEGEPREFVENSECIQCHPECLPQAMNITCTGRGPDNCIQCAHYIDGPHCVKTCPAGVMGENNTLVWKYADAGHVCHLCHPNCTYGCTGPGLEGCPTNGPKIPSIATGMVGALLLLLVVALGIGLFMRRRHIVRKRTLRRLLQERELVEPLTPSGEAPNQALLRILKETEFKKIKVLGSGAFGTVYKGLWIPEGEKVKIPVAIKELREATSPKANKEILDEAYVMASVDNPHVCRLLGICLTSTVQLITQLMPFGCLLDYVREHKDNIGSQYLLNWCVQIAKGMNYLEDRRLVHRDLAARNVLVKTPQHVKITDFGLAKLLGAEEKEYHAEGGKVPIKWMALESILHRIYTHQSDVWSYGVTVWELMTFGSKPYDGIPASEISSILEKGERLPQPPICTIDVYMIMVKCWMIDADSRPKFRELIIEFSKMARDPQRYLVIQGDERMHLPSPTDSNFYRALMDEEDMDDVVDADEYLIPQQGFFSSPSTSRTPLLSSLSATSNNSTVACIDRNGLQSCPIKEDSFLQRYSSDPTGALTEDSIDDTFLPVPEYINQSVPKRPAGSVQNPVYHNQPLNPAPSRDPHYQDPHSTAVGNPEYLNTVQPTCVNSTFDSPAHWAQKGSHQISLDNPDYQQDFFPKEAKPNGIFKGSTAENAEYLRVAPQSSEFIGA

inhibition [%] | Compound
29.9 | N#Cc1cnc2cc3c(cc2c1Nc1ccc(F)c(Cl)c1)N(C(=O)/C=C/CBr)CCO3.N#Cc1cnc2cc3c(cc2c1Nc1ccc(F)c(Cl)c1)N(C(=O)/C=C/CCl)CCO3

Molecular target: EGFR (Balb/c mice) (UniProt P00533)
Assay: not given
Settings: not given

Compound | LD50 [mg/kg]
Cc1ccc2ncnc(Nc3cccc(Cl)c3)c2c1 | > 400

Molecular target: MAPK14 (UniProt Q16539)
Assay: p38 Inhibition
Settings: not given

MAPK14, sequence (Q16539 whole entry, looked up): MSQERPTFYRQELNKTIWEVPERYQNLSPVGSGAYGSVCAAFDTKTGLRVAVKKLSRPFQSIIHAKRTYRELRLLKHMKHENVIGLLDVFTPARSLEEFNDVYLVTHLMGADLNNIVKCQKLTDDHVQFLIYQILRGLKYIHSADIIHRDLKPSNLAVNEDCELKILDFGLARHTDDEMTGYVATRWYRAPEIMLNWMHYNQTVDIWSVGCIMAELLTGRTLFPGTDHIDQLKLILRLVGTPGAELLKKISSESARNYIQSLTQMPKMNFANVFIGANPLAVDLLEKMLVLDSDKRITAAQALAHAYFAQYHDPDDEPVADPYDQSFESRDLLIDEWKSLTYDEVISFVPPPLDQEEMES

IC50 [nM] | Compound
> 30000 | O=C(NCc1ccc(S(=O)(=O)NNC(=O)c2csc(-c3ccc(C4SCCS4)cc3)n2)s1)c1ccc(Cl)cc1
> 30000 | O=C(CCCNc1ncc(C(F)(F)F)cc1Cl)NNS(=O)(=O)c1ccc(CNC(=O)c2ccc(Cl)cc2)cc1
> 30000 | O=C(NCc1ccc(S(=O)(=O)NNC(=O)c2csc(COc3ccccc3Cl)n2)s1)c1ccc(Cl)cc1

Molecular target: EGFR (human) (UniProt P00533)
Assay: not given
Settings: hn5

EGFR (human), sequence (P00533 whole entry, looked up): as the sequence (P00533 whole entry, looked up) above

IC50 [nM] | Compound
350 | NC(=O)[C@H]1CCCN1Cc1ccc(-c2cc3c(Nc4ccc(OCc5ccccc5)cc4)ncnc3cn2)o1
350 | CN(CC(N)=O)Cc1ccc(-c2cc3c(Nc4ccc(OCc5ccccc5)cc4)ncnc3cn2)o1
460 | OCc1ccc(-c2cc3c(Nc4ccc(OCc5ccccc5)cc4)ncnc3cn2)o1
720 | CS(=O)(=O)NCCNCc1ccc(-c2cc3c(Nc4ccc(OCc5ccccc5)cc4)ncnc3cn2)o1
3300 | CN(C)C(=O)[C@@H]1CCCN1Cc1ccc(-c2cc3c(Nc4ccc(OCc5ccccc5)cc4)ncnc3cn2)o1

System: PIK3CG (murine)
Assay: Inhibition of C5a-Mediated AKT Phosphorylation in Raw 264.7 Macrophages
Settings: not given

Compound | inhibition [%]
N=C1NC(=O)/C(=C/c2ccc3nccnc3c2)S1 | 100
O=C1NC(=O)/C(=C/c2ccc3c(c2)OCO3)S1 | 100
O=C1NC(=O)/C(=C/c2ccc3nsnc3c2)S1 | 100
O=C1NC(=O)/C(=C/c2ccc3ncnc(N4CCCCC4)c3c2)S1 | 100

System: ERBB2;PIK3CA (human), P42336 [Assessment of Cell Proliferation in MCF7.1 Cells Expressed by ERBB2/ PI3K(E545K)]
Assay: Assessment of Cell Proliferation in MCF7.1 Cells Expressed by ERBB2/ PI3K(E545K)
Settings: not given

ERBB2;PIK3CA (human), P42336 [Assessment of Cell Proliferation in MCF7.1 Cells Expressed by ERBB2/ PI3K(E545K)], sequence (P42336 whole entry, looked up, stated change not applied): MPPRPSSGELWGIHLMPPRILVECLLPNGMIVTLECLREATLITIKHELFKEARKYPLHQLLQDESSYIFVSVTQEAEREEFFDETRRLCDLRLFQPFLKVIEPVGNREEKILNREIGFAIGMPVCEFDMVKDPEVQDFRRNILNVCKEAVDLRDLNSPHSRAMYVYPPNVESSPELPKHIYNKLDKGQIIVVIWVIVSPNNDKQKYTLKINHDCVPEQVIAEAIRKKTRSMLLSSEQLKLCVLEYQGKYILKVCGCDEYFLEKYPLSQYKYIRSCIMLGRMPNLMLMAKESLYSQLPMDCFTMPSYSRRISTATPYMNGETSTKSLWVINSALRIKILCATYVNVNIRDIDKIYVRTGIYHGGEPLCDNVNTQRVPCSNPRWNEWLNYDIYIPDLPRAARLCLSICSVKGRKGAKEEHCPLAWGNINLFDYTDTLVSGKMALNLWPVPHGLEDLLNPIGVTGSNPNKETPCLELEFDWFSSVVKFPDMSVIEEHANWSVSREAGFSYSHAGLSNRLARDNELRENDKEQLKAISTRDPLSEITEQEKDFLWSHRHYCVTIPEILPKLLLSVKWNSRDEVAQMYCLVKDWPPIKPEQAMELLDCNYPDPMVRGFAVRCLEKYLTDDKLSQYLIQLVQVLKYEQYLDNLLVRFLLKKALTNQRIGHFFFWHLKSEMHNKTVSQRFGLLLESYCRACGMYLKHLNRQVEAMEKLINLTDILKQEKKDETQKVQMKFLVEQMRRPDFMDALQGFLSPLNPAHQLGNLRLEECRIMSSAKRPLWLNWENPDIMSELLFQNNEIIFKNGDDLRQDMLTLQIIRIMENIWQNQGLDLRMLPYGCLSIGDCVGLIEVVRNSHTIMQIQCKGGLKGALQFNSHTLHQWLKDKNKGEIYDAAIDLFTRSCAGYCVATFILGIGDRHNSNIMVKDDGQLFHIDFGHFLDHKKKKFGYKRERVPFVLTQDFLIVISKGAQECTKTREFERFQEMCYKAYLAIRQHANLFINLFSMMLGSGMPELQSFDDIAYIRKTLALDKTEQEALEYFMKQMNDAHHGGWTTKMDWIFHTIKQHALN

EC50 | Compound
290 nM | CC(C)(N)c1cc2nc(-c3cnc(N)nc3)nc(N3CCOCC3)c2s1
40 nM and 33 nM | CS(=O)(=O)c1cccc(-c2cc3nc(-c4cnc(N)nc4)nc(N4CCOCC4)c3s2)c1
430 nM | Nc1ncc(-c2nc(N3CCOCC3)c3sccc3n2)cn1
170 nM | CN(Cc1cc2nc(-c3cnc(N)nc3)nc(N3CCOCC3)c2s1)S(C)(=O)=O

Compound | EC50
CC(=O)N(C)Cc1cc2nc(-c3cnc(N)nc3)nc(N3CCOCC3)c2s1 | 190 nM and 187 nM

Molecular target: MAPK14 (UniProt Q16539)
Assay: p38 Inhibition Assay (in Vitro)
Settings: not given

IC50 [nM] | Compound
> 30000 | O=C(NCc1ccc(S(=O)(=O)N2CCN(c3ncccn3)CC2)s1)c1ccc(Cl)cc1
> 30000 | O=C(NCc1ccc(S(=O)(=O)N2CCN(C(=O)N3C=Cc4oncc4C3)CC2)s1)c1ccc(Cl)cc1
> 30000 | O=C(NCc1ccc(S(=O)(=O)N2CCC(C(=O)c3ccc(F)cc3F)CC2)s1)c1ccc(Cl)cc1
> 30000 | O=C(NCc1ccc(S(=O)(=O)N2CCC(Nc3cccc(S(=O)(=O)C(F)(F)F)c3)CC2)s1)c1ccc(Cl)cc1
> 30000 | O=C(NCc1ccc(S(=O)(=O)N2CCC(n3nnc4ccccc43)CC2)s1)c1ccc(Cl)cc1

Molecular target: CDK2 (human) (UniProt P24941)
Assay: Enzyme Assay
Settings: not given

IC50 [nM] | Compound
50 | Cc1ccnc(NS(=O)(=O)c2ccc(Nc3nc(C)c4c(=O)[nH]c(Nc5cccc(Cl)c5)nc4n3)cc2)n1
> 10000 | Cc1ccnc(NS(=O)(=O)c2ccc(Nc3nc(C)c4c(=O)[nH]c(Nc5ccc(S(=O)(=O)O)cc5)nc4n3)cc2)n1

Same assay, conditions: concentration not given here

inhibition [%] | Compound
1 | O=C(NCc1ccc(S(=O)(=O)N2CCC(n3nnc4ccccc43)CC2)s1)c1ccc(Cl)cc1

Molecular target: MAPK14 (human) (UniProt Q16539)
Assay: p38-alpha Kinase Inhibition
Settings: COS-1

MAPK14 (human), sequence (Q16539 whole entry, looked up): as the sequence (Q16539 whole entry, looked up) above

IC50 [nM] | Compound
> 100000 | Cc1ccccc1Cc1ccc(Nc2ccc(F)cc2C)cc1Cl

Molecular target: EGFR (murine) (UniProt P00533)
Assay: not given
Settings: nih 3t3

EGFR (murine), sequence (P00533 whole entry, looked up): as the sequence (P00533 whole entry, looked up) above

IC50 [nM] | Compound
> 100000 | O=c1[nH]c2ccc(Oc3ccccc3)nc2[nH]1
> 100000 | O=c1[nH]c2ccc(Sc3ccccc3)nc2[nH]1
> 100000 | COC(=O)Nc1nc2ccc(Oc3ccccc3)nc2[nH]1

Molecular target: EGFR (UniProt P00533)
Assay: not given
Settings: not given

IC50 [nM] | Compound
10000 | N#Cc1cnc2c(sc3ccc(N)cc32)c1Nc1cccc(Br)c1
10000 | N#Cc1cnc2c(sc3ccc([N+](=O)[O-])cc32)c1Nc1cccc(Br)c1
10000 | C=CC(=O)Nc1ccc2sc3c(Nc4cccc(Br)c4)c(C#N)cnc3c2c1
1.5 | N#Cc1cnc2cc3nc[nH]c3cc2c1Nc1cccc(Br)c1

Molecular target: EGFR (Human), P00533 [T790M/L858R]
Assay: not given
Settings: not given

IC50 [nM] | Compound
10 to 100 | C=CC(=O)N[C@H]1CCC[C@@H](Nc2nc(Nc3cnn(C)c3)ncc2Cl)C1
10 to 100 | C=CC(=O)N[C@@H]1CCCC[C@H](Nc2nc(Nc3cnn(C)c3)ncc2Cl)C1
10 to 100 | C=CC(=O)Nc1cccc(Nc2nc(Nc3cn(C)nc3C)ncc2Cl)n1
< 10 | C=CC(=O)Nc1ccc(F)c(Nc2nc(Nc3cn(C)nc3C)ncc2Cl)c1
10 to 100 | C=CC(=O)Nc1cccc(Nc2nc(NCc3cnn(C)c3)ncc2Cl)c1

Molecular target: EGFR (human) (UniProt P00533)
Assay: not given
Settings: not given

IC50 [nM] | Compound
6600 | Cc1ccnc(NS(=O)(=O)c2ccc(Nc3nc(C)c4c(=O)[nH]c(NCc5ccccc5)nc4n3)cc2)n1
> 10000 | Cc1ccnc(NS(=O)(=O)c2ccc(Nc3nc(C)c4c(=O)[nH]c(Nc5cccc(Cl)c5)nc4n3)cc2)n1
7800 | Cc1ccnc(NS(=O)(=O)c2ccc(Nc3nc(C)c4c(=O)[nH]c(SCc5ccccc5)nc4n3)cc2)n1
5500 | Cc1ccnc(NS(=O)(=O)c2ccc(Nc3nc(-c4ccc(O)cc4O)c4c(=O)[nH]c(SCc5ccccc5)nc4n3)cc2)n1
8100 | Cc1ccnc(NS(=O)(=O)c2ccc(Nc3nc(C)c4c(=O)[nH]c(Nc5ccc(S(=O)(=O)O)cc5)nc4n3)cc2)n1
